Source: patent publication EP4310070A1, “USE OF TRANS AMANTADINE DERIVATIVE OR SALT THEREOF” (Chengdu Shibeikang Biomedical Technology Co., Ltd., priority 2021, dated 2022)
Counter-ions that a name gives are not always drawn. Marks after values point to notes of the source that are not given here.

What was measured:
[1] = tested on: acute lung injury in mice induced by oleic acid; assay: acute lung injury test in mouse (oleic acid-induced, histological grading of lung pathology); type: in vivo, KM mice; details: for protective effect against acute lung injury in mice induced by oleic acid: compared with the model control group (P<0.05 or P<0.01), 40 mg/kg free base i.v.; for Overall lung pathology score: group sum, weighted (alveolar wall thickening x 1, inflammatory cell infiltration x 1, lung tissue necrosis x 3), 40 mg/kg free base i.v. once a day for 4 times, model control 81, normal control 21; for Alveolar wall thickening Level 0 / Inflammatory cell infiltration Level 0 / Lung tissue necrosis Level 0: number of mice (11 per group) at score 0 (No pathological change); for Alveolar wall thickening Level 0 / Inflammatory cell infiltration Level 0 / Lung tissue necrosis Level 0 / Alveolar wall thickening Level 1 / Inflammatory cell infiltration Level 1 / Lung tissue necrosis Level 1 / Alveolar wall thickening Level 2 / Inflammatory cell infiltration Level 2 / Lung tissue necrosis Level 2 / Alveolar wall thickening Level 3 / Inflammatory cell infiltration Level 3 / Lung tissue necrosis Level 3 / Alveolar wall thickening Level 4 / Inflammatory cell infiltration Level 4 / Lung tissue necrosis Level 4: 40 mg/kg in terms of free base, intravenously once a day for 4 times, oleic acid 300 mg/kg i.v.; for Alveolar wall thickening Level 1 / Inflammatory cell infiltration Level 1 / Lung tissue necrosis Level 1: number of mice (11 per group) at score 1 (Occasional); for Alveolar wall thickening Level 2 / Inflammatory cell infiltration Level 2 / Lung tissue necrosis Level 2: number of mice (11 per group) at score 2 (Mild); for Alveolar wall thickening Level 3 / Inflammatory cell infiltration Level 3 / Lung tissue necrosis Level 3: number of mice (11 per group) at score 3 (Moderate); for Alveolar wall thickening Level 4 / Inflammatory cell infiltration Level 4 / Lung tissue necrosis Level 4: number of mice (11 per group) at score 4 (Severe)
Procedure: KM mice, weighing 18-22g, with all 66 being males, were used and randomly grouped into a normal control group, a model control group, a Formula I compound group (40 mg/kg, in terms of free base), a Formula V compound group (40 mg/kg, in terms of free base), a Comparative Example group (40 mg/kg, in terms of free base), and an ambroxol hydrochloride group (40 mg/kg, in terms of free base), 11 animals in each group, and each group was administered intravenously (dissolved in normal saline by adjusting pH or directly dissolved in normal saline) once a day for 4 times, while the model control group and the normal control group were given an equivalent amount of normal saline. 30 minutes after the last administration, except for the normal control group, all other mice were administered 300 mg/kg oleic acid intravenously (prepared into the desired concentration with sterile saline containing 0.1% […] immediately before use), and the vehicle control group was given an equivalent volume of 0.1% BSA saline. The mice were sacrificed 4 hours after the last administration, and the right lobes of the lungs were removed and fixed in a 10% formaldehyde solution. After dehydration, embedding in paraffin, dissection, and staining with HE, they were observed under a microscope for pathological changes of the lung tissues. Here, the medicament used for the Comparative Example group was the 4-[(2-amino-3,5-dibromobenzyl)amino]adamantan-1-ol hydrochloride (racemic) prepared in Comparative Example 1. Table 1. Criteria for histological grading of lung injury
The above indicators are multiplied by different weighting numbers depending on the significance of the pathology (alveolar wall thickening × 1, inflammatory cell infiltration × 1, lung tissue necrosis × 3), and finally added up to obtain an overall lung pathology score. Table 2. Test results of lung pathologies of each group

[2] = tested on: ammonia-induced coughing response in mice; assay: cough response of mice induced by ammonia water; type: in vivo, KM mice; details: for reduction of the number of coughs: compared with the model control group (P<0.05 or P<0.01), 15 mg/kg free base i.v.; for Number of coughs (times): within 3 minutes after concentrated ammonia, 15 mg/kg in terms of free base i.v., 30 minutes after administration, x ± s, n=10, model control 41.7±8.76
Procedure: 50 KM mice, weighing 18-22g, of both sexes were used and randomly divided into 5 groups, a model control group, a Formula I compound group (15 mg/kg, in terms of free base), a Formula V compound group (15 mg/kg, in terms of free base), a Comparative Example group (15 mg/kg, in terms of free base), and an ambroxol hydrochloride group (15 mg/kg, in terms of free base), 10 animals in each group, and were administered intravenously (dissolved in normal saline by adjusting pH or directly dissolved in normal saline). 30 minutes after the administration, the mice were put in an inverted beaker with a volume of 500ml and a cotton ball inside. Timing was started once 0.2ml of concentrated ammonia/mouse was added onto the cotton ball. The number of coughs of each animal within 3 minutes was observed and recorded. Here, the medicament used for the Comparative Example group was the 4-[(2-amino-3,5-dibromobenzyl)amino]adamantan-1-ol hydrochloride (racemic) prepared in Comparative Example 1. Table 3. Effect on ammonia-induced coughing response in mice (x ± s, n=10)

[3] = tested on: expectoration amount by rat capillary tube expectoration; assay: rat capillary sputum excretion test; type: in vivo, SD rats; details: length of liquid in capillary tube within 90 minutes, 15 mg/kg in terms of free base via tail vein, 30 minutes after administration, n=10, vehicle control 22.7±4.41
Procedure: 180-220g SD rats of both sexes were used and divided into random groups, with 10 rats in each group, namely a vehicle control group, a Formula I compound group (15 mg/kg, in terms of free base), a Formula V compound group (15 mg/kg, in terms of free base), a Comparative Example group (15 mg/kg, in terms of free base) and ambroxol hydrochloride (15 mg/kg, in terms of free base). The rats were fasted and restrained from water for 12 hours before testing the amount of sputum excretion, and administered the respective medicaments via the tail vein (dissolved in normal saline by adjusting pH or directly dissolved in normal saline). 30 minutes after the administration, they were anesthetized by intraperitoneally injecting 1g/kg of a urethane solution in saline, fixed in supine position, and the trachea was separated after cutting through neck skin. A small hole was pierced by using a syringe needle between the two cartilage rings on the lower edge of the thyroid cartilage, and a capillary tube (with an inner diameter of 0.8mm, and a length of 10cm) was inserted centripetally into the trachea. Sputum was collected while adjusting the angle between the capillary tube and the trachea, and the total number of the length of liquids in the capillary tube (mm) was used to evaluate the expectoration effect. The amount of expectoration of the rats within 90 minutes was recorded. Here, the medicament used for the Comparative Example group was the 4-[(2-amino-3,5-dibromobenzyl)amino]adamantan-1-ol hydrochloride (racemic) prepared in Comparative Example 1. Table 4. Results of the effect on the expectoration amount by rat capillary tube expectoration

[4] = tested on: tracheal phenol red secretion in mice; assay: phenol red expectoration test in mice; type: in vivo; details: colorimetric measurement at 546nm; 30 mg/kg in terms of free base via tail vein 2 times in a row; x ± s, n=12; control 0.095±0.022
Procedure: Experimental method: 60 mice of both sexes were used and randomly divided into a control (normal saline) group, a Formula I compound group (30 mg/kg, in terms of free base), a Formula V compound group (30 mg/kg, in terms of free base), a Comparative Example group (30 mg/kg, in terms of free base) and ambroxol hydrochloride (30 mg/kg, in terms of free base), 12 rats in each group; the respective medicaments were administered via the tail vein (dissolved in normal saline by adjusting pH or directly dissolved in normal saline) 2 times in a row. 15 minutes after the last administration to the mice, a 5% phenol red solution in normal saline (0.5g/kg) was subcutaneously injected. After 30 minutes, the mice were sacrificed and a section of the trachea was cut from below the thyroid cartilage to the trachea branch. The section was placed in a test tube containing 1 mL of normal saline, shaken and soaked for 30 minutes, and then centrifuged for 10 minutes (3000 r/min). The supernatant was transferred to another test tube, 0.1 mL of 1M NaOH solution was added, and shaken uniformly for a colorimetric measurement at 546nm. The effects of each group on the tracheal phenol red secretion in mice were statistically compared, and the experimental results obtained are shown in Table 5 below. Here, the medicament used for the Comparative Example group was the 4-[(2-amino-3,5-dibromobenzyl)amino]adamantan-1-ol hydrochloride (racemic) prepared in Comparative Example 1. Table 5. Effects on tracheal phenol red secretion in mice (x ± s)

Structure (SMILES) | protective effect against acute lung injury in mice induced by oleic acid [1] | Overall lung pathology score [1] | Alveolar wall thickening Level 0 [1] | Inflammatory cell infiltration Level 0 [1] | Lung tissue necrosis Level 0 [1] | Alveolar wall thickening Level 1 [1] | Inflammatory cell infiltration Level 1 [1] | Lung tissue necrosis Level 1 [1] | Alveolar wall thickening Level 2 [1] | Inflammatory cell infiltration Level 2 [1] | Lung tissue necrosis Level 2 [1] | Alveolar wall thickening Level 3 [1] | Inflammatory cell infiltration Level 3 [1] | Lung tissue necrosis Level 3 [1] | Alveolar wall thickening Level 4 [1] | Inflammatory cell infiltration Level 4 [1] | Lung tissue necrosis Level 4 [1] | reduction of the number of coughs [2] | Number of coughs (times) [2] [times] | Phenol red secretion (OD number) [4] [OD number] | other results
Cl.Nc1c(Br)cc(Br)cc1CNC1C2CC3CC1CC(O)(C3)C2 (racemic) [Compound of Comparative Example, 4-[(2-amino-3,5-dibromobenzyl)amino]adamantan-1-ol hydrochloride (racemic)] | definite protective effect | 44* | 1 | 1 | 8 | 2 | 6 | 2 | 8 | 4 | 1 | 0 | 0 | 0 | 0 | 0 | 0 | significantly reduce the number of coughs | 25.7±6.40 | 0.223±0.058 | Expectoration amount in 90min (mm) [3]: 39.9±5.43 mm
Nc1c(Br)cc(Br)cc1CN[C@H]1CC[C@H](O)CC1 [Ambroxol hydrochloride] |  | 54 | 2 | 0 | 6 | 4 | 4 | 4 | 4 | 7 | 0 | 1 | 0 | 1 | 0 | 0 | 0 | significantly reduce the number of coughs | 32.7±8.55 | 0.135±0.023 | Expectoration amount in 90min (mm) [3]: 30.1±4.95 mm
Nc1c(Br)cc(Br)cc1CN[C@@H]1[C@@H]2C[C@@H]3C[C@H]1C[C@@](O)(C3)C2 [Compound of Formula I, trans-4-[(2-amino-3,5-dibromobenzyl)amino]adamantan-1-ol] | definite protective effect |  | 1 | 3 | 11 | 7 | 7 | 0 | 3 | 1 | 0 | 1 | 0 | 0 | 0 | 0 | 0 | significantly reduce the number of coughs |  | 0.279±0.063 | Overall lung pathology score ([1]; 40 mg/kg): 23^**▲; Number of coughs (times) ([2]; 15 mg/kg): 19.2±5.98 times; Expectoration amount in 90min (mm) ([3]; 15 mg/kg): 45.9±6.79 mm
